Literature values, collected in patent publication US9409952B2, “Peptide-compound cyclization method” (Chugai Seiyaku Kabushiki Kaisha, priority 2011, dated 2016).

Settings: side chain carboxyl group, phenolic hydroxy group or tetrazole; cited from earlier work

c1nnn[nH]1 [Tetrazole]
pKa as an acid: 5.6
